Results reported in ChEMBL document CHEMBL1201862, “PubChem BioAssay data set” (2004).
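Protocol summary: plate cells (96-well), add compound at 5 concentrations, incubate 48 h, interpolate endpoints linearly. Abbreviation: GI50, concentration required for 50% inhibition of growth.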 Calls of active or inactive are those of the source. No stated cut-off is given here; in the data, active = GI50 up to about 1.1 µM and inactive = higher.

How the values were obtained:
Assay in all cases: growth of human tumour cells (NCI), 48 h
786-0 = test system: 786-0
SNB-19 = test system: SNB-19
IGROV-1 = test system: IGROV-1
HCC 2998 = test system: HCC 2998
SN12C = test system: SN12C
UACC-62 = test system: UACC-62
Malme-3M = test system: Malme-3M
OVCAR-5 = test system: OVCAR-5
OVCAR-8 = test system: OVCAR-8
T47D = test system: T47D
BT-549 = test system: BT-549
SK-OV-3 = test system: SK-OV-3
RXF 393 = test system: RXF 393
MCF7 = test system: MCF7
U-251 = test system: U-251
SW-620 = test system: SW-620
HT-29 = test system: HT-29
UO-31 = test system: UO-31
COLO 205 = test system: COLO 205

| Structure (SMILES) | GI50 (786-0) | GI50 (SNB-19) | GI50 (IGROV-1) | GI50 (HCC 2998) | GI50 (SN12C) | GI50 (UACC-62) | GI50 (Malme-3M) | GI50 (OVCAR-5) | GI50 (OVCAR-8) | GI50 (T47D) | GI50 (BT-549) | GI50 (SK-OV-3) | GI50 (RXF 393) | GI50 (MCF7) | GI50 (U-251) | GI50 (SW-620) | GI50 (HT-29) | GI50 (UO-31) | GI50 (COLO 205) |
| --- | --- | --- | --- | --- | --- | --- | --- | --- | --- | --- | --- | --- | --- | --- | --- | --- | --- | --- | --- |
| N#CC(C#N)=C(N)/C(C#N)=C/c1ccc2ccccc2n1 | 17.9 µM (inactive) | 24.3 µM (inactive) | 16.9 µM (inactive) | 77.3 µM (inactive) | 30.1 µM (inactive) | 18.8 µM (inactive) | 96.8 µM (inactive) | > 100 µM (inactive) | 30.5 µM (inactive) | > 100 µM (inactive) | 26.5 µM (inactive) | 35.3 µM (inactive) | 20 µM (inactive) | 30.7 µM (inactive) | > 10 µM (inactive) | > 10 µM (inactive) | 18.6 µM (inactive) | 15.5 µM (inactive) |  |
| Cc1cn(CC2(CO)CCC2)c(=O)[nH]c1=O | > 100 µM (inactive) |  | > 100 µM (inactive) | > 100 µM (inactive) | > 100 µM (inactive) | > 100 µM (inactive) | > 100 µM (inactive) | > 100 µM (inactive) | > 100 µM (inactive) | > 100 µM (inactive) | > 100 µM (inactive) | > 100 µM (inactive) | > 100 µM (inactive) | > 100 µM (inactive) | > 100 µM (inactive) | > 100 µM (inactive) | > 100 µM (inactive) | > 100 µM (inactive) | > 100 µM (inactive) |
| N#Cc1ccc(-c2nc(C#N)c(N)o2)cc1 | > 10 µM (inactive) | > 10 µM (inactive) | > 10 µM (inactive) | > 10 µM (inactive) | > 10 µM (inactive) | > 10 µM (inactive) | > 10 µM (inactive) |  | > 10 µM (inactive) | > 10 µM (inactive) | > 10 µM (inactive) | > 10 µM (inactive) | > 10 µM (inactive) | > 10 µM (inactive) |  | > 10 µM (inactive) | > 10 µM (inactive) | > 10 µM (inactive) | > 10 µM (inactive) |
| Cc1cccc(NC(=O)CCl)c1 | 3.67 µM (inactive) | > 10 µM (inactive) | > 10 µM (inactive) | > 10 µM (inactive) | 7.67 µM (inactive) | 5.64 µM (inactive) | 3.93 µM (inactive) | > 10 µM (inactive) | 9.53 µM (inactive) | > 10 µM (inactive) | > 10 µM (inactive) | > 10 µM (inactive) | 8.49 µM (inactive) | > 10 µM (inactive) | 2.24 µM (inactive) | > 10 µM (inactive) | 7.87 µM (inactive) |  | > 10 µM (inactive) |
| CC(=O)OC/C=C(/C=C/CNC1CCCCC1)OC(C)=O | 11.5 µM (inactive) | 24.5 µM (inactive) | 18.6 µM (inactive) | 23.4 µM (inactive) | 16.7 µM (inactive) | 19.1 µM (inactive) | 14.9 µM (inactive) | 16.3 µM (inactive) | > 10 µM (inactive) | 7.26 µM (inactive) | 16.9 µM (inactive) | 19.6 µM (inactive) | 17.9 µM (inactive) | 22 µM (inactive) | 17.8 µM (inactive) | 14 µM (inactive) | 18.6 µM (inactive) |  | 13.9 µM (inactive) |
| CC(=O)OCC(=O)[C@@]12OC(C)(C)O[C@@H]1C[C@H]1[C@@H]3CC=C4C[C@@H](O)CC[C@]4(C)[C@H]3CC[C@@]12C | 41.4 µM (inactive) | 39.9 µM (inactive) | 50.5 µM (inactive) |  | 43.9 µM (inactive) | > 100 µM (inactive) | > 100 µM (inactive) | > 100 µM (inactive) | 36.7 µM (inactive) | 35.5 µM (inactive) | 31.6 µM (inactive) | 38.3 µM (inactive) | 19.9 µM (inactive) | > 100 µM (inactive) | 58.6 µM (inactive) | > 100 µM (inactive) | > 100 µM (inactive) | > 100 µM (inactive) | > 100 µM (inactive) |
| Cn1c2ccc([N+](=O)[O-])cc2c(=O)c2c(O)cc(O)cc21 | 19 µM (inactive) | 18.1 µM (inactive) | 15.5 µM (inactive) | > 100 µM (inactive) | 31.4 µM (inactive) | 54.5 µM (inactive) | 18.6 µM (inactive) | > 100 µM (inactive) | 13.2 µM (inactive) | 45.2 µM (inactive) | 28.4 µM (inactive) |  | 25.7 µM (inactive) | 13.7 µM (inactive) | 15.7 µM (inactive) | 68.2 µM (inactive) |  | 59 µM (inactive) | > 100 µM (inactive) |
| CC(=O)/N=C1\NC(=O)/C(=C/c2ccc(/C=C3/C(=O)N/C(=N\C(C)=O)N3C)cc2)N1C | > 100 µM (inactive) | > 100 µM (inactive) | > 100 µM (inactive) | > 100 µM (inactive) | > 100 µM (inactive) | > 100 µM (inactive) |  | > 100 µM (inactive) | > 100 µM (inactive) | > 100 µM (inactive) | > 100 µM (inactive) | > 100 µM (inactive) | > 100 µM (inactive) | > 100 µM (inactive) | > 100 µM (inactive) | > 100 µM (inactive) | > 100 µM (inactive) | > 100 µM (inactive) | > 100 µM (inactive) |
| CCOc1ccc(/N=N/C2C(=O)N(C(=O)CC(=O)Nc3ccc(Cl)cc3)N=C2C)cc1 (stereo not drawn) | > 100 µM (inactive) |  | > 100 µM (inactive) | > 100 µM (inactive) | > 100 µM (inactive) | > 100 µM (inactive) | > 100 µM (inactive) | > 100 µM (inactive) | 64.1 µM (inactive) | > 100 µM (inactive) | > 100 µM (inactive) | > 100 µM (inactive) | > 100 µM (inactive) | > 100 µM (inactive) | > 100 µM (inactive) | > 100 µM (inactive) | > 100 µM (inactive) | > 100 µM (inactive) | > 100 µM (inactive) |
| COc1cc(O)cc(/C=C/c2ccc(O)cc2)c1 | 29.6 µM (inactive) | 36.6 µM (inactive) | 53.3 µM (inactive) |  | 27.5 µM (inactive) | 20.7 µM (inactive) | 32.6 µM (inactive) | > 100 µM (inactive) | 23.8 µM (inactive) | 44.7 µM (inactive) | 13.6 µM (inactive) | > 100 µM (inactive) | 72.8 µM (inactive) | 49.2 µM (inactive) | 22.4 µM (inactive) | 48.8 µM (inactive) | 40.4 µM (inactive) | 39.1 µM (inactive) | > 100 µM (inactive) |
| CC(=O)OC1(C)CC(C)C(=O)C(C(O)CC2CC(=O)NC(=O)C2)C1 (stereo not drawn) | 0.0204 µM (active) | 0.0141 µM (active) | 0.031 µM (active) | 0.01 µM (active) | 0.00822 µM (active) | 0.082 µM (active) | 0.0186 µM (active) | 0.0206 µM (active) | 0.0122 µM (active) | 0.0179 µM (active) | 0.0334 µM (active) |  | 0.01 µM (active) | 0.0176 µM (active) | 0.00697 µM (active) | 0.015 µM (active) | 0.00798 µM (active) | 0.0219 µM (active) | 0.0108 µM (active) |
| CN(C)CCCN1c2ccc(O)cc2Sc2ccc(Cl)cc21 [7-HYDROXYCHLORPROMAZINE] | 11.1 µM (inactive) | 13.3 µM (inactive) | 9.84 µM (inactive) |  | 10.3 µM (inactive) | 9.91 µM (inactive) | 10.3 µM (inactive) | 15.1 µM (inactive) | 16 µM (inactive) | 21 µM (inactive) | 12.4 µM (inactive) | 17.4 µM (inactive) | 16.9 µM (inactive) | 13.2 µM (inactive) | 9.86 µM (inactive) | 17.5 µM (inactive) | 3.48 µM (inactive) | 9.53 µM (inactive) | 20.8 µM (inactive) |
| CCOC(=O)CNC(=O)C(CSC(=O)N(O)c1ccc(Cl)cc1)NC(=O)CCC(N)C(=O)OCC (stereo not drawn) | > 50 µM (inactive) | 9.53 µM (inactive) | 4.14 µM (inactive) | 4.75 µM (inactive) | > 50 µM (inactive) | > 50 µM (inactive) |  | > 50 µM (inactive) | > 50 µM (inactive) | > 50 µM (inactive) | > 50 µM (inactive) | > 50 µM (inactive) | > 50 µM (inactive) | > 50 µM (inactive) | > 50 µM (inactive) | 14.8 µM (inactive) | > 50 µM (inactive) | > 50 µM (inactive) | > 50 µM (inactive) |
| CC1=CCC(C)=Nc2nc3ccccc3n21 | > 100 µM (inactive) | > 100 µM (inactive) | > 100 µM (inactive) |  | > 100 µM (inactive) | > 100 µM (inactive) | > 100 µM (inactive) | > 100 µM (inactive) | > 100 µM (inactive) | > 100 µM (inactive) | > 100 µM (inactive) | > 100 µM (inactive) | > 100 µM (inactive) | > 100 µM (inactive) | > 100 µM (inactive) | > 100 µM (inactive) | > 100 µM (inactive) | 23.2 µM (inactive) | > 100 µM (inactive) |
| CCc1n[nH]c(=O)n1N1C(=O)C2CCCCC2C1=O (stereo not drawn) | > 100 µM (inactive) |  | > 100 µM (inactive) | > 100 µM (inactive) | > 100 µM (inactive) | > 100 µM (inactive) | > 100 µM (inactive) | > 100 µM (inactive) | > 100 µM (inactive) | > 100 µM (inactive) | > 100 µM (inactive) | > 100 µM (inactive) | > 100 µM (inactive) | > 100 µM (inactive) | > 100 µM (inactive) | > 100 µM (inactive) | > 100 µM (inactive) | > 100 µM (inactive) | > 100 µM (inactive) |
